Measured values: article PMC5218480 (PLoS ONE, 2017)

Test system: MV-4-11 cells
Assay: Gene expression microarray analysis (Affymetrix PrimeView) and GSEA
Format: cell-based, human
Parameters: RFU PODN (11730768_x_at) / Fold change /veh PODN (11730768_x_at) / RFU LINC00158 (11744669_a_at) / Fold change /veh LINC00158 (11744669_a_at) / RFU DUSP10 (11751237_a_at) / Fold change /veh DUSP10 (11751237_a_at) / RFU ID3 (11757404_x_at) / Fold change /veh ID3 (11757404_x_at) / RFU PLEKHG5 (11737974_s_at) / Fold change /veh PLEKHG5 (11737974_s_at) / RFU LRRC4B (11730491_at) / Fold change /veh LRRC4B (11730491_at) / RFU GIMAP4 (11747438_a_at) / Fold change /veh GIMAP4 (11747438_a_at) / RFU KRT8 (11758183_x_at) / Fold change /veh KRT8 (11758183_x_at) / RFU CNN1 (11734310_a_at) / Fold change /veh CNN1 (11734310_a_at) / RFU VPS37D (11726825_at) / Fold change /veh VPS37D (11726825_at) / RFU C10orf10 (11716522_x_at) / Fold change /veh C10orf10 (11716522_x_at) / RFU KIR2DL2 /// KIR2DL4 /// KIR2DL5A /// KIR2DL5B /// KIR2DS1 /// KIR2DS2 /// KIR2DS3 /// KIR2DS4 /// KIR3DL3 /// KIR3DL3 /// KIR3DS1 (11738374_at) / Fold change /veh KIR2DL2 /// KIR2DL4 /// KIR2DL5A /// KIR2DL5B /// KIR2DS1 /// KIR2DS2 /// KIR2DS3 /// KIR2DS4 /// KIR3DL3 /// KIR3DL3 /// KIR3DS1 (11738374_at) / RFU C1QL1 (11718748_at) / Fold change /veh C1QL1 (11718748_at) / RFU TMPRSS4 (11747572_a_at) / Fold change /veh TMPRSS4 (11747572_a_at) / RFU HAMP (11756126_x_at) / Fold change /veh HAMP (11756126_x_at) / RFU RNFT2 (11725882_a_at) / Fold change /veh RNFT2 (11725882_a_at) / RFU NR4A2 (11747474_a_at) / Fold change /veh NR4A2 (11747474_a_at) / RFU ABCC12 (11746883_a_at) / Fold change /veh ABCC12 (11746883_a_at) / RFU TMEM136 (11760407_x_at) / Fold change /veh TMEM136 (11760407_x_at) / RFU CLDN22 /// WWC2 (11732394_at) / Fold change /veh CLDN22 /// WWC2 (11732394_at) / RFU HLA-DPB1 (11760878_x_at) / Fold change /veh HLA-DPB1 (11760878_x_at) / RFU SPINT1 (11716480_a_at) / Fold change /veh SPINT1 (11716480_a_at) / RFU GAP43 (11754022_s_at) / Fold change /veh GAP43 (11754022_s_at) / RFU A4GNT (11735810_at) / Fold change /veh A4GNT (11735810_at) / RFU PRB3 (11715151_x_at) / Fold change /veh PRB3 (11715151_x_at) / RFU TUBB4B (11761932_at) / Fold change /veh TUBB4B (11761932_at) / RFU CAPN14 (11732068_a_at) / Fold change /veh CAPN14 (11732068_a_at) / RFU TMCC2 (11721928_a_at) / Fold change /veh TMCC2 (11721928_a_at) / RFU IRGQ (11745062_a_at) / Fold change /veh IRGQ (11745062_a_at) / RFU FAM174B (11720279_a_at) / Fold change /veh FAM174B (11720279_a_at) / RFU TMPRSS4 (11748680_a_at) / Fold change /veh TMPRSS4 (11748680_a_at) / RFU FAM212B (11763350_a_at) / Fold change /veh FAM212B (11763350_a_at) / RFU PLEKHG5 (11743358_a_at) / Fold change /veh PLEKHG5 (11743358_a_at) / RFU ZSCAN30 (11745921_a_at) / Fold change /veh ZSCAN30 (11745921_a_at) / RFU CMKLR1 (11741424_a_at) / Fold change /veh CMKLR1 (11741424_a_at) / RFU LOC101060620 /// MAPK8IP1 (11723275_at) / Fold change /veh LOC101060620 /// MAPK8IP1 (11723275_at) / RFU SPTSSB (11747773_x_at) / Fold change /veh SPTSSB (11747773_x_at) / RFU PRSS12 (11739890_at) / Fold change /veh PRSS12 (11739890_at) / RFU BIN1 (11741810_x_at) / Fold change /veh BIN1 (11741810_x_at) / RFU WNT11 (11732464_a_at) / Fold change /veh WNT11 (11732464_a_at) / RFU C10orf10 (11716521_a_at) / Fold change /veh C10orf10 (11716521_a_at) / RFU C5orf56 (11738089_at) / Fold change /veh C5orf56 (11738089_at) / RFU CYB561 (11721691_x_at) / Fold change /veh CYB561 (11721691_x_at) / RFU ANKRD19P (11752326_a_at) / Fold change /veh ANKRD19P (11752326_a_at) / RFU OR2T12 /// OR2T33 /// OR2T8 (11738714_s_at) / Fold change /veh OR2T12 /// OR2T33 /// OR2T8 (11738714_s_at) / RFU VCAN (11748164_a_at) / Fold change /veh VCAN (11748164_a_at) / RFU JSRP1 (11732532_at) / Fold change /veh JSRP1 (11732532_at) / RFU KRTAP10-11 (11738290_x_at) / Fold change /veh KRTAP10-11 (11738290_x_at) / RFU MYO3A (11730013_a_at) / Fold change /veh MYO3A (11730013_a_at) / RFU EBF3 (11725865_a_at) / Fold change /veh EBF3 (11725865_a_at) / RFU CAMK2N1 (11719241_x_at) / Fold change /veh CAMK2N1 (11719241_x_at) / RFU C5orf56 (11738088_a_at) / Fold change /veh C5orf56 (11738088_a_at) / RFU OLFML3 (11715873_a_at) / Fold change /veh OLFML3 (11715873_a_at) / RFU LOC100653217 /// NTM (11731650_a_at) / Fold change /veh LOC100653217 /// NTM (11731650_a_at) / RFU MAPK11 (11762145_a_at) / Fold change /veh MAPK11 (11762145_a_at) / RFU FIZ1 (11724087_x_at) / Fold change /veh FIZ1 (11724087_x_at) / RFU OASL (11726364_x_at) / Fold change /veh OASL (11726364_x_at) / RFU SOX15 (11748057_x_at) / Fold change /veh SOX15 (11748057_x_at) / RFU CD79A (11719716_a_at) / Fold change /veh CD79A (11719716_a_at) / RFU HIST1H1D (11736915_at) / Fold change /veh HIST1H1D (11736915_at) / RFU CASKIN2 (11723855_a_at) / Fold change /veh CASKIN2 (11723855_a_at) / RFU LOC730098 (11760151_x_at) / Fold change /veh LOC730098 (11760151_x_at) / RFU OR4N2 (11742367_at) / Fold change /veh OR4N2 (11742367_at) / RFU PRRT2 (11749266_a_at) / Fold change /veh PRRT2 (11749266_a_at) / RFU SNX32 (11753110_a_at) / Fold change /veh SNX32 (11753110_a_at) / RFU CDHR5 (11726645_a_at) / Fold change /veh CDHR5 (11726645_a_at) / RFU RCAN1 (11760418_a_at) / Fold change /veh RCAN1 (11760418_a_at) / RFU FAM167A (11723789_a_at) / Fold change /veh FAM167A (11723789_a_at) / RFU FAM26E (11764081_at) / Fold change /veh FAM26E (11764081_at) / RFU ISYNA1 (11749810_s_at) / Fold change /veh ISYNA1 (11749810_s_at) / RFU ACY1 (11761880_at) / Fold change /veh ACY1 (11761880_at) / RFU 11764098_at / Fold change /veh 11764098_at / RFU SAMD14 (11745864_x_at) / Fold change /veh SAMD14 (11745864_x_at) / RFU NPB (11741838_a_at) / Fold change /veh NPB (11741838_a_at) / RFU TMPRSS6 (11731388_a_at) / Fold change /veh TMPRSS6 (11731388_a_at) / RFU KRTAP10-2 (11738614_at) / Fold change /veh KRTAP10-2 (11738614_at) / RFU ARHGAP8 /// PRR5-ARHGAP8 (11727945_x_at) / Fold change /veh ARHGAP8 /// PRR5-ARHGAP8 (11727945_x_at) / RFU KRTAP5-7 /// NADSYN1 (11734609_at) / Fold change /veh KRTAP5-7 /// NADSYN1 (11734609_at) / RFU RASL12 (11751679_a_at) / Fold change /veh RASL12 (11751679_a_at) / RFU CDKN2B (11736163_a_at) / Fold change /veh CDKN2B (11736163_a_at) / RFU PRF1 (11729649_at) / Fold change /veh PRF1 (11729649_at) / RFU, ZNF638 /// ZNF638-IT1 / Fold change vs veh, ZNF638 /// ZNF638-IT1 / RFU, PANK3 / Fold change vs veh, PANK3 / RFU, SH3YL1 / Fold change vs veh, SH3YL1 / RFU, ZEB2 / Fold change vs veh, ZEB2 / RFU, NRIP1 / Fold change vs veh, NRIP1 / RFU, PTTG1IP / Fold change vs veh, PTTG1IP / RFU, CAPN2 / Fold change vs veh, CAPN2 / RFU, MED14 / Fold change vs veh, MED14 / RFU, SNORA58 / Fold change vs veh, SNORA58 / RFU, C1orf63 / Fold change vs veh, C1orf63 / RFU, LRRFIP1 / Fold change vs veh, LRRFIP1 / RFU, NDUFAF7 / Fold change vs veh, NDUFAF7 / RFU, SLC12A2 / Fold change vs veh, SLC12A2 / RFU, IBTK / Fold change vs veh, IBTK / RFU, ESF1 / Fold change vs veh, ESF1 / Fold change vs veh, TMEM50B / RFU, TAOK1 / Fold change vs veh, TAOK1 / RFU, ACBD3 / Fold change vs veh, ACBD3 / RFU, TMA16 / Fold change vs veh, TMA16 / RFU, RWDD3 / Fold change vs veh, RWDD3 / RFU, BCAT1 / Fold change vs veh, BCAT1 / RFU, EDEM3 / Fold change vs veh, EDEM3 / RFU, TMEM33 / Fold change vs veh, TMEM33 / RFU, WDR75 / Fold change vs veh, WDR75 / RFU, AHCTF1 / Fold change vs veh, AHCTF1 / RFU, TFRC / Fold change vs veh, TFRC / RFU, ZDHHC17 / Fold change vs veh, ZDHHC17 / RFU, NOM1 / Fold change vs veh, NOM1 / RFU, ARL8B / Fold change vs veh, ARL8B / RFU, ZBTB11 / Fold change vs veh, ZBTB11 / RFU, TAMM41 / Fold change vs veh, TAMM41 / RFU, KIAA1704 /// LOC100996395 / Fold change vs veh, KIAA1704 /// LOC100996395 / RFU, ING1 / Fold change vs veh, ING1 / RFU, TRMT61B / Fold change vs veh, TRMT61B / RFU, FUBP3 / Fold change vs veh, FUBP3 / RFU, TP53 / Fold change vs veh, TP53 / RFU, TNKS2 / Fold change vs veh, TNKS2 / RFU, ZFP14 / Fold change vs veh, ZFP14 / RFU, ACTR2 / Fold change vs veh, ACTR2 / RFU, PPP3R1 / Fold change vs veh, PPP3R1 / RFU, PIK3R1 / Fold change vs veh, PIK3R1 / RFU, HNRNPA1 / Fold change vs veh, HNRNPA1 / RFU, RNF170 / Fold change vs veh, RNF170 / RFU, ZNF28 / Fold change vs veh, ZNF28 / RFU, RNGTT / Fold change vs veh, RNGTT / RFU, OGT / Fold change vs veh, OGT / RFU, BRD1 / Fold change vs veh, BRD1 / RFU, MARS / Fold change vs veh, MARS / RFU, ZNF655 / Fold change vs veh, ZNF655 / RFU, FAHD1 / Fold change vs veh, FAHD1 / RFU, BDP1 / Fold change vs veh, BDP1 / RFU, LRRCC1 / Fold change vs veh, LRRCC1 / RFU, ARID1A / Fold change vs veh, ARID1A / RFU, ZNF146 / Fold change vs veh, ZNF146 / RFU, ZNF330 / Fold change vs veh, ZNF330 / RFU, GPN3 / Fold change vs veh, GPN3 / RFU, C9orf123 / Fold change vs veh, C9orf123 / RFU, N4BP2L2 / Fold change vs veh, N4BP2L2 / RFU, ARFIP1 / Fold change vs veh, ARFIP1 / RFU, FAM179B / Fold change vs veh, FAM179B / RFU, BCL10 / Fold change vs veh, BCL10 / RFU, UHRF1BP1L / Fold change vs veh, UHRF1BP1L / RFU, BET1 / Fold change vs veh, BET1 / RFU, CNOT2 / Fold change vs veh, CNOT2 / RFU, ZNF268 / Fold change vs veh, ZNF268 / Fold change vs veh, ZNF507 / RFU, DGCR2 / Fold change vs veh, DGCR2 / RFU, WDSUB1 / Fold change vs veh, WDSUB1 / Fold change vs veh, HSP90B1 /// MIR3652 / RFU, ADSS / Fold change vs veh, ADSS / RFU, GK / Fold change vs veh, GK / RFU, ZNF148 / Fold change vs veh, ZNF148 / RFU, TAF9 / Fold change vs veh, TAF9 / RFU, SLC1A5 / Fold change vs veh, SLC1A5 / RFU, SLMO2 / Fold change vs veh, SLMO2 / RFU, ABCC4 / Fold change vs veh, ABCC4 / RFU, LOC101060439 /// RAP1B / Fold change vs veh, LOC101060439 /// RAP1B / RFU, RFX7 / Fold change vs veh, RFX7 / RFU, GTPBP10 / Fold change vs veh, GTPBP10 / RFU, CNEP1R1 / Fold change vs veh, CNEP1R1 / RFU, BIVM-ERCC5 /// ERCC5 / Fold change vs veh, BIVM-ERCC5 /// ERCC5 / RFU, ILF3 / Fold change vs veh, ILF3 / RFU 11762660_at / Fold change /veh 11762660_at / RFU VCAN (11757783_s_at) / Fold change /veh VCAN (11757783_s_at) / RFU DDX43 (11728927_at) / Fold change /veh DDX43 (11728927_at) / RFU KRT8 (11758188_x_at) / Fold change /veh KRT8 (11758188_x_at) / RFU NKD1 (11759106_at) / Fold change /veh NKD1 (11759106_at) / RFU SRD5A1 (11742802_a_at) / Fold change /veh SRD5A1 (11742802_a_at) / RFU TPSAB1 /// TPSB2 (11721975_s_at) / Fold change /veh TPSAB1 /// TPSB2 (11721975_s_at) / RFU GSTM3 (11746129_a_at) / Fold change /veh GSTM3 (11746129_a_at) / RFU IL23R (11737362_x_at) / Fold change /veh IL23R (11737362_x_at) / RFU TMEM51 (11727254_a_at) / Fold change /veh TMEM51 (11727254_a_at) / RFU PIWIL2 (11732686_x_at) / Fold change /veh PIWIL2 (11732686_x_at) / RFU ORM1 (11744905_x_at) / Fold change /veh ORM1 (11744905_x_at) / RFU CCDC152 (11743942_at) / Fold change /veh CCDC152 (11743942_at) / RFU ECM1 (11717891_a_at) / Fold change /veh ECM1 (11717891_a_at) / RFU IL23R (11748794_a_at) / Fold change /veh IL23R (11748794_a_at) / RFU TNFAIP8L3 (11732012_x_at) / Fold change /veh TNFAIP8L3 (11732012_x_at) / RFU MBOAT4 (11741988_at) / Fold change /veh MBOAT4 (11741988_at) / RFU 11764193_at / Fold change /veh 11764193_at / RFU TMEM53 (11763286_at) / Fold change /veh TMEM53 (11763286_at) / RFU MAGEB2 (11727129_at) / Fold change /veh MAGEB2 (11727129_at) / RFU TMEM200A (11744735_a_at) / Fold change /veh TMEM200A (11744735_a_at) / RFU CCDC152 (11751479_a_at) / Fold change /veh CCDC152 (11751479_a_at) / RFU FAM211A (11726209_a_at) / Fold change /veh FAM211A (11726209_a_at) / RFU RGS16 (11746705_a_at) / Fold change /veh RGS16 (11746705_a_at) / RFU VCAN (11755009_s_at) / Fold change /veh VCAN (11755009_s_at) / RFU RHOB (11743442_s_at) / Fold change /veh RHOB (11743442_s_at) / RFU RGS16 (11720943_a_at) / Fold change /veh RGS16 (11720943_a_at) / RFU RGS16 (11720944_at) / Fold change /veh RGS16 (11720944_at) / RFU, VPS4B / Fold change vs veh, VPS4B / RFU, CREB1 / Fold change vs veh, CREB1 / RFU, DNAJC13 / Fold change vs veh, DNAJC13 / RFU, GNAQ / Fold change vs veh, GNAQ / RFU, CDK5R1 / Fold change vs veh, CDK5R1 / RFU, ZRANB3 / Fold change vs veh, ZRANB3 / RFU, CUL4A / Fold change vs veh, CUL4A / RFU, CCNY / Fold change vs veh, CCNY / RFU, UFL1 / Fold change vs veh, UFL1 / RFU, COG3 / Fold change vs veh, COG3 / RFU, DIAPH2 / Fold change vs veh, DIAPH2 / RFU, SKA2 / Fold change vs veh, SKA2 / RFU, AFF3 / Fold change vs veh, AFF3 / RFU, LMF1 / Fold change vs veh, LMF1 / RFU, IPO11 / Fold change vs veh, IPO11 / RFU, DFFB / Fold change vs veh, DFFB / RFU, FOXP1 / Fold change vs veh, FOXP1 / RFU, CARD8 / Fold change vs veh, CARD8 / RFU, STRN3 / Fold change vs veh, STRN3 / RFU, ADK / Fold change vs veh, ADK / RFU, RASSF2 / Fold change vs veh, RASSF2 / RFU, WIPF1 / Fold change vs veh, WIPF1 / RFU, LARP1B / Fold change vs veh, LARP1B / RFU, RASA1 / Fold change vs veh, RASA1 / RFU, RB1 / Fold change vs veh, RB1 / RFU, PPFIA1 / Fold change vs veh, PPFIA1 / RFU, MAT2A / Fold change vs veh, MAT2A / RFU, CCT5 / Fold change vs veh, CCT5 / RFU, WDR92 / Fold change vs veh, WDR92 / RFU, CUX1 / Fold change vs veh, CUX1 / RFU, TTC7A / Fold change vs veh, TTC7A / RFU, TMEM135 / Fold change vs veh, TMEM135 / RFU, DEPTOR / Fold change vs veh, DEPTOR / RFU, CPM / Fold change vs veh, CPM / RFU, DNAJB6 / Fold change vs veh, DNAJB6 / RFU, CACNA2D3 / Fold change vs veh, CACNA2D3 / RFU, DTX4 / Fold change vs veh, DTX4 / RFU, TFCP2 / Fold change vs veh, TFCP2 / RFU, GMCL1 /// GMCL1P1 / Fold change vs veh, GMCL1 /// GMCL1P1 / RFU, AEBP2 / Fold change vs veh, AEBP2 / RFU, SNHG1 /// SNORD22 /// SNORD25 /// SNORD26 /// SNORD27 /// SNORD28 /// SNORD29 /// SNORD31 / Fold change vs veh, SNHG1 /// SNORD22 /// SNORD25 /// SNORD26 /// SNORD27 /// SNORD28 /// SNORD29 /// SNORD31 / Fold change (Aza/veh), C12orf56 (ProbeSet 11735607_a_at) / Fold change (ACY-1035/veh), C12orf56 (ProbeSet 11735607_a_at) / Fold change (Aza/veh), FGFR1OP (ProbeSet 11751329_s_at) / Fold change (ACY-1035/veh), FGFR1OP (ProbeSet 11751329_s_at) / Fold change (Aza/veh), VPS36 (ProbeSet 11739960_a_at) / Fold change (ACY-1035/veh), VPS36 (ProbeSet 11739960_a_at) / RFU SYPL1 (11715823_x_at) / Fold change /veh SYPL1 (11715823_x_at) / RFU IGFBP7 (11715501_s_at) / Fold change /veh IGFBP7 (11715501_s_at) / RFU REEP3 (11722064_at) / Fold change /veh REEP3 (11722064_at) / RFU IGLL1 (11728026_x_at) / Fold change /veh IGLL1 (11728026_x_at): dose or concentration left out as unconfirmed
Details: MV-4-11 cells, 48 hours

Question: For Nc1ncn([C@@H]2O[C@H](CO)[C@@H](O)[C@H]2O)c(=O)n1 [azacitidine], which “Fold change /veh CMKLR1 (11741424_a_at)” value is on record?
Answer: 1.02
